Measured values reported in patent US10457663B2, “Pyrazol-pyridine derivatives” (Hoffmann-La Roche Inc., priority 2016, dated 2019).

Legend:
human EAAT3 = target: T1, human EAAT3 (Homo sapiens, UniProt P43005); assay: FLIPR Membrane Potential (FMP) assay; format: cell-based; details: HEK-293 cells stably expressing human EAAT3; L-glutamate as agonist at EC80; antagonist applied 15 min before; Kb by Cheng-Prusoff from IC50
T1 construct: expressed in transfected cells; host or cells: HEK-293
T1 sequence (P43005 1-524): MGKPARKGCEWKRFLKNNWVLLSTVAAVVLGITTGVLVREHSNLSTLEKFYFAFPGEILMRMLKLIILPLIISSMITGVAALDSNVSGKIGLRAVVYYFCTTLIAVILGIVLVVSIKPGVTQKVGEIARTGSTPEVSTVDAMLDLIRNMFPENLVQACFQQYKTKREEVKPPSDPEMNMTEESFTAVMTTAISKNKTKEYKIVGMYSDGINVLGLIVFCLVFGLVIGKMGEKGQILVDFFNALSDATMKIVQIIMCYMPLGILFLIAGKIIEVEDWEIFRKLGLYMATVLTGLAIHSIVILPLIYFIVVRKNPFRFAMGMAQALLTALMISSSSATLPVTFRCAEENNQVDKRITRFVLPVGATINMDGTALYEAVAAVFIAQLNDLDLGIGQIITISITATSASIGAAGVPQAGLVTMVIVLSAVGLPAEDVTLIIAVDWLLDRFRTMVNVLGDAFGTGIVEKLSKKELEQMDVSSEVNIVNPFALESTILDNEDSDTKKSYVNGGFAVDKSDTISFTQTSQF
Description: The FLIPR Membrane Potential (FMP) assay
HEK-293 cells stably expressing human EAAT3 were seeded at 55 000 cells/well in growth medium (DMEM glutamate free (Invitrogen 11960-044), 1% Pen Strep (10 ml/l GIBCO BRL N^o 15140-023), 10% FCS non dialysed heat inactivated, 5 mg/l puromycin) in poly-D-lysine treated 96-well black microtiter plates with clear-bottom. After 24 h, the growth medium was removed and 100 μl/well of Krebs buffer (140 mM NaCl, 4.7 mM KCl, 2.5 mM CaCl2), 1.2 mM MgCl2, 11 mM HEPES, 10 mM D-glucose, pH=7.4) added. The cells were then loaded by adding 100 μl/well FMP assay dye (FLIPR Membrane Potential assay reagent, Molecular Devices). The 96-well plates were then incubated at 37° C. for 1 h. The depolarization of the cells will cause more dye to enter in the cells, where it will bind to intracellular proteins and lipids and cause an increase in the fluorescence signal. Antagonist potency at human EAAT3 was determined by using L-glutamate as agonist at a concentration which gives 80% of the maximum response. The antagonists were applied 15 min before the application of the agonist L-glutamate. The assays were performed at room temperature and measurements done by using a Fluorometric Imaging Plate Reader (FLIPR, Molecular Devices) and filter #2. Responses were measured as peak increase in fluorescence minus basal (i.e. fluorescence without addition of L-glutamate). Kb was determined using the Cheng-Prusoff equation Kb=IC50/[1+(A/EC50)], where IC50 is the concentration of the antagonist producing 50% inhibition, A is the concentration of the agonist against which the IC50 is being determined (at EC80) and EC50 is the concentration of the agonist producing 50% […].

Row | Structure (SMILES) | Kb (human EAAT3) [µM] | melting point [°C]
1 | CC1(NC(=O)c2cc(-c3ccc(F)cc3)nc(-c3ccnn3C(C)(C)C)c2)CCS(=O)(=O)C1 (racemic) [Example 9, (RS)-2-(2-tert-Butylpyrazol-3-yl)-6-(4-fluorophenyl)-N-(3-methyl-1,1-dioxothiolan-3-yl)-pyridine-4-carboxamide] | 0.19 | 192
2 | Cn1nccc1-c1cc(C(=O)NC(C)(C)C)cc(-c2ccc(Cl)cc2)n1 [Example 1, N-tert-Butyl-2-(4-chlorophenyl)-6-(2-methyl-pyrazol-3-yl)-pyridine-4-carboxamide] | 0.37 | 184
3 | CC(C)n1nccc1-c1cc(C(=O)NC(C)(C)C)cc(-c2ccc(C(F)(F)F)cc2)n1 [Example 6, N-tert-Butyl-2-(2-propan-2-yl-pyrazol-3-yl)-6-[4-(trifluoromethyl)-phenyl]-pyridine-4-carboxamide] | 0.45 | 173
4 | CC(C)n1nccc1-c1cc(C(=O)NC(C)(C)C)cc(-c2ccc(Cl)cc2)n1 [Example 7, N-tert-Butyl-2-(4-chlorophenyl)-6-(2-propan-2-yl-pyrazol-3-yl)-pyridine-4-carboxamide] | 0.37 | 207
5 | CC(C)n1nccc1-c1cc(C(=O)NC(C)(C)C)cc(-c2ccc(F)cc2)n1 [Example 8, N-tert-Butyl-2-(4-fluorophenyl)-6-(2-propan-2-yl-pyrazol-3-yl)-pyridine-4-carboxamide] | 0.26 | 200
6 | CCn1nccc1-c1cc(C(=O)NC(C)(C)C)cc(-c2ccc(F)cc2)n1 [Example 11, N-tert-Butyl-2-(2-ethylpyrazol-3-yl)-6-(4-fluorophenyl)-pyridine-4-carboxamide] | 0.36 | 170
7 | CC(C)(C)NC(=O)c1cc(-c2ccc(F)cc2)nc(-c2ccnn2CC2CC2)c1 [Example 12, N-tert-Butyl-2-[2-(cyclopropylmethyl)-pyrazol-3-yl]-6-(4-fluorophenyl)-pyridine-4-carboxamide] | 0.31 | 203
8 | CC(C)n1nccc1-c1cc(C(=O)NC(C)(C)C)cc(-c2ccccc2)n1 [Example 28, N-tert-Butyl-2-phenyl-6-(2-propan-2-yl-pyrazol-3-yl)-pyridine-4-carboxamide] | 0.31 | 197
9 | Cc1cc(-c2cc(C(=O)NC(C)(C)C)cc(-c3ccnn3C(C)C)n2)ccc1F [Example 37, N-tert-Butyl-2-(4-fluoro-3-methyl-phenyl)-6-(2-propan-2-yl-pyrazol-3-yl)-pyridine-4-carboxamide] | 0.4 | 160
10 | CC(C)n1nccc1-c1cc(C(=O)NC(C)(C)C#N)cc(-c2ccc(F)cc2)n1 [Example 45, N-(2-Cyanopropan-2-yl)-2-(4-fluorophenyl)-6-(2-propan-2-yl-pyrazol-3-yl)-pyridine-4-carboxamide] | 0.45 | 

Continued, values first:

Row | Kb (human EAAT3) [µM] | melting point [°C] | Structure (SMILES)
11 | 0.56 | 161 | Cn1nccc1-c1cc(C(=O)NC(C)(C)C)cc(-c2ccc(F)cc2)n1 [Example 2, N-tert-Butyl-2-(4-fluorophenyl)-6-(2-methyl-pyrazol-3-yl)-pyridine-4-carboxamide]
12 | 0.065 | 226 | CC(C)(C)NC(=O)c1cc(-c2ccc(F)cc2)nc(-c2ccnn2C(C)(C)C)c1 [Example 3, N-tert-Butyl-2-(2-tert-butyl-pyrazol-3-yl)-6-(4-fluorophenyl)-pyridine-4-carboxamide]
13 | 0.16 | 204 | CC(C)(C)NC(=O)c1cc(-c2ccc(Cl)cc2)nc(-c2ccnn2C(C)(C)C)c1 [Example 4, N-tert-Butyl-2-(2-tert-butyl-pyrazol-3-yl)-6-(4-chlorophenyl)-pyridine-4-carboxamide]
14 | 0.29 | 222 | CC(C)(C)NC(=O)c1cc(-c2ccc(C(F)(F)F)cc2)nc(-c2ccnn2C(C)(C)C)c1 [Example 5, N-tert-Butyl-2-(2-tert-butyl-pyrazol-3-yl)-6-[4-(trifluoromethyl)-phenyl]-pyridine-4-carboxamide]
15 | 0.14 | 154 | CCC(C)(C)NC(=O)c1cc(-c2ccc(F)cc2)nc(-c2ccnn2C(C)(C)C)c1 [Example 10, 2-(2-tert-Butylpyrazol-3-yl)-6-(4-fluorophenyl)-N-(2-methylbutan-2-yl)-pyridine-4-carboxamide]
16 | 0.088 | 178 | CC(C)(C)n1nccc1-c1cc(C(=O)NC(C)(C)C(F)(F)F)cc(-c2ccc(F)cc2)n1 [Example 13, 2-(2-tert-Butyl-pyrazol-3-yl)-6-(4-fluorophenyl)-N-(1,1,1-trifluoro-2-methyl-propan-2-yl)-pyridine-4-carboxamide]
17 | 0.071 | 213 | CC(C)(C#N)NC(=O)c1cc(-c2ccc(F)cc2)nc(-c2ccnn2C(C)(C)C)c1 [Example 14, 2-(2-tert-Butylpyrazol-3-yl)-N-(2-cyano-propan-2-yl)-6-(4-fluoro-phenyl)-pyridine-4-carboxamide]
18 | 0.135 | 169 | CC(C)(NC(=O)c1cc(-c2ccc(F)cc2)nc(-c2ccnn2C(C)(C)C)c1)C1CC1 [Example 15, 2-(2-tert-Butyl-pyrazol-3-yl)-N-(2-cyclopropyl-propan-2-yl)-6-(4-fluorophenyl)-pyridine-4-carboxamide]
19 | 0.08 | 142 | CC(C)(CO)NC(=O)c1cc(-c2ccc(F)cc2)nc(-c2ccnn2C(C)(C)C)c1 [Example 16, 2-(2-tert-Butyl-pyrazol-3-yl)-6-(4-fluorophenyl)-N-(1-hydroxy-2-methyl-propan-2-yl)-pyridine-4-carboxamide]
20 | 0.05 | 216 | CC(C)(C)NC(=O)c1cc(-c2ccc(F)c(F)c2)nc(-c2ccnn2C(C)(C)C)c1 [Example 19, N-tert-Butyl-2-(2-tert-butyl-pyrazol-3-yl)-6-(3,4-difluoro-phenyl)-pyridine-4-carboxamide]
21 | 0.1 | 202 | CC(C)c1ccc(-c2cc(C(=O)NC(C)(C)C)cc(-c3ccnn3C(C)(C)C)n2)cc1 [Example 20, N-tert-Butyl-2-(2-tert-butyl-pyrazol-3-yl)-6-(4-propan-2-yl-phenyl)-pyridine-4-carboxamide]
22 | 0.054 | 182 | Cc1ccc(-c2cc(C(=O)NC(C)(C)C)cc(-c3ccnn3C(C)(C)C)n2)cc1 [Example 22, N-tert-Butyl-2-(2-tert-butyl-pyrazol-3-yl)-6-(4-methyl-phenyl)-pyridine-4-carboxamide]
23 | 0.11 | 208 | CC(C)(C)NC(=O)c1cc(-c2ccc(Cl)c(F)c2)nc(-c2ccnn2C(C)(C)C)c1 [Example 24, N-tert-Butyl-2-(2-tert-butyl-pyrazol-3-yl)-6-(4-chloro-3-fluoro-phenyl)-pyridine-4-carboxamide]
24 | 0.089 | 207 | Cc1ccc(-c2cc(C(=O)NC(C)(C)C)cc(-c3ccnn3C(C)(C)C)n2)cc1F [Example 26, N-tert-Butyl-2-(2-tert-butyl-pyrazol-3-yl)-6-(3-fluoro-4-methyl-phenyl)-pyridine-4-carboxamide]
25 | 0.094 | 209 | CC(C)(C)NC(=O)c1cc(-c2ccccc2)nc(-c2ccnn2C(C)(C)C)c1 [Example 27, N-tert-Butyl-2-(2-tert-butyl-pyrazol-3-yl)-6-phenyl-pyridine-4-carboxamide]
